Reference: ChEMBL document CHEMBL1141502, “Synthesis of hybrid acetogenins, alpha,beta-unsaturated-gamma-lactone-free nitrogen-containing heterocyclic analogues, and their cytotoxicity against human cancer cell lines” (2008)

Key:
Format in all cases: functional
[1] = test system: SF-295; assay: Antiproliferative activity against human SF295 cells by sulforhodamine B assay relative to control
[2] = test system: PC-3; assay: Antiproliferative activity against human PC3 cells by sulforhodamine B assay relative to control
[3] = test system: MKN-28; assay: Antiproliferative activity against human MKN28 cells by sulforhodamine B assay relative to control
[4] = test system: ACHN; assay: Antiproliferative activity against human ACHN cells by sulforhodamine B assay relative to control
[5] = test system: MCF7; assay: Antiproliferative activity against human MCF7 cells by sulforhodamine B assay relative to control
[6] = test system: A549; assay: Antiproliferative activity against human A549 cells by sulforhodamine B assay relative to control
[7] = test system: MKN-7; assay: Antiproliferative activity against human MKN7 cells by sulforhodamine B assay relative to control
[8] = Antiproliferative activity against human HBC4 cells by sulforhodamine B assay relative to control
[9] = Antiproliferative activity against human RXF631L cells by sulforhodamine B assay relative to control; conditions: RXF 631
[10] = test system: MDA-MB-231; assay: Antiproliferative activity against human MDA-MB-231 cells by sulforhodamine B assay relative to control
[11] = Antiproliferative activity against human HBC5 cells by sulforhodamine B assay relative to control
[12] = test system: U-251; assay: Antiproliferative activity against human U251 cells by sulforhodamine B assay relative to control
[13] = test system: NCI-H460; assay: Antiproliferative activity against human NCI-H460 cells by sulforhodamine B assay relative to control
[14] = test system: NCI-H23; assay: Antiproliferative activity against human NCI-H23 cells by sulforhodamine B assay relative to control
[15] = Antiproliferative activity against human OVACR3 cells by sulforhodamine B assay relative to control
[16] = test system: HCT-15; assay: Antiproliferative activity against human HCT15 cells by sulforhodamine B assay relative to control
[17] = test system: MKN-74; assay: Antiproliferative activity against human MKN74 cells by sulforhodamine B assay relative to control
[18] = test system: MKN-45; assay: Antiproliferative activity against human MKN45 cells by sulforhodamine B assay relative to control
[19] = test system: SF-539; assay: Antiproliferative activity against human SF539 cells by sulforhodamine B assay relative to control
[20] = test system: SF-268; assay: Antiproliferative activity against human SF268 cell by sulforhodamine B assay relative to control
[21] = test system: St-4; assay: Antiproliferative activity against human St4 cells by sulforhodamine B assay relative to control
[22] = Antiproliferative activity against human OVACR4 cells by sulforhodamine B assay relative to control
[23] = Antiproliferative activity against human OVACR8 cells by sulforhodamine B assay relative to control
[24] = test system: LOX IMVI; assay: Antiproliferative activity against human LOX IMVI cells by sulforhodamine B assay relative to control
[25] = Antiproliferative activity against human BSY1 cells by sulforhodamine B assay relative to control; conditions: BSY-1
[26] = test system: HCT-116; assay: Antiproliferative activity against human HCT116 cells by sulforhodamine B assay relative to control
[27] = test system: HCC 2998; assay: Antiproliferative activity against human HCC2998 cells by sulforhodamine B assay relative to control
[28] = test system: DMS-114; assay: Antiproliferative activity against human DMS114 cells by sulforhodamine B assay relative to control
[29] = test system: NCI-H226; assay: Antiproliferative activity against human NCI-H226 cells by sulforhodamine B assay relative to control
[30] = test system: SK-OV-3; assay: Antiproliferative activity against human SKOV3 cells by sulforhodamine B assay relative to control
[31] = test system: NCI-H522; assay: Antiproliferative activity against human NCI-H522 cells by sulforhodamine B assay relative to control
[32] = test system: HT-29; assay: Antiproliferative activity against human HT29 cells by sulforhodamine B assay relative to control
[33] = test system: SNB-78; assay: Antiproliferative activity against human SNB78 cells by sulforhodamine B assay relative to control
[34] = Antiproliferative activity against human MKN1 cells by sulforhodamine B assay relative to control; conditions: MKN-1
[35] = test system: KM12; assay: Antiproliferative activity against human KM12 cells by sulforhodamine B assay relative to control
[36] = test system: DMS-273; assay: Antiproliferative activity against human DMS273 cells by sulforhodamine B assay relative to control
[37] = Antiproliferative activity against human OVACR5 cells by sulforhodamine B assay relative to control
[38] = test system: SNB-75; assay: Antiproliferative activity against human SNB75 cells by sulforhodamine B assay relative to control
[39] = test system: DU-145; assay: Antiproliferative activity against human DU145 cells by sulforhodamine B assay relative to control

SMILES	GI50 [1] [µM]	GI50 [2] [µM]	GI50 [3] [µM]	GI50 [4] [µM]	GI50 [5] [µM]	GI50 [6] [µM]	GI50 [7] [µM]	GI50 [8] [µM]	GI50 [9] [µM]	GI50 [10] [µM]	GI50 [11] [µM]	GI50 [12] [µM]	GI50 [13] [µM]	GI50 [14] [µM]	GI50 [15] [µM]	GI50 [16] [µM]	GI50 [17] [µM]	GI50 [18] [µM]	GI50 [19] [µM]	GI50 [20] [µM]	further results
CCCCCCCCCCCC[C@@H](O)[C@H]1CC[C@H]([C@H](O)CCCCCCCCCCCCc2cnc(N)nc2)O1	56	> 100	40	> 100	> 100	> 100	9.4	> 100	> 100	> 100	> 100	> 100	> 100	36	> 100	> 100	> 100	> 100	62	> 100	GI50 [21]: > 100 µM; GI50 [22]: > 100 µM; GI50 [23]: 90 µM; GI50 [24]: 58 µM; GI50 [25]: > 100 µM; GI50 [26]: > 100 µM; GI50 [27]: 89 µM; GI50 [28]: 4.8 µM; GI50 [29]: 44 µM; GI50 [30]: 56 µM; GI50 [31]: 22 µM; GI50 [32]: 90 µM; GI50 [33]: > 100 µM; GI50 [34]: > 100 µM; GI50 [35]: > 100 µM; GI50 [36]: > 100 µM; GI50 [37]: > 100 µM; GI50 [38]: 27 µM; GI50 [39]: > 100 µM
CCCCCCCCCCCC[C@@H](O)[C@H]1CC[C@H]([C@H](O)CCCCCCCCCCCCC2=C[C@H](C)OC2=O)O1 [REL-SOLAMIN]	40	> 100	14	> 100	71	> 100	13	> 100	> 100	> 100	> 100	> 100	> 100	73	> 100	> 100	> 100	> 100	> 100	> 100	GI50 [21]: > 100 µM; GI50 [22]: > 100 µM; GI50 [23]: > 100 µM; GI50 [24]: 29 µM; GI50 [25]: > 100 µM; GI50 [26]: > 100 µM; GI50 [27]: > 100 µM; GI50 [28]: 4.3 µM; GI50 [29]: > 100 µM; GI50 [30]: > 100 µM; GI50 [31]: 58 µM; GI50 [32]: > 100 µM; GI50 [33]: > 100 µM; GI50 [34]: > 100 µM; GI50 [35]: > 100 µM; GI50 [36]: > 100 µM; GI50 [37]: > 100 µM; GI50 [38]: > 100 µM; GI50 [39]: > 100 µM
CCCCCCCCCCCC[C@@H](O)[C@H]1CC[C@H]([C@H](O)CCCCCCCCCCCCc2ccnn2C)O1	24	> 100	4.4	88	27	31	6.2	> 100	> 100	32	69	> 100	> 100	0.91	> 100	> 100	23	> 100	37	> 100	GI50 [21]: 65 µM; GI50 [22]: 37 µM; GI50 [23]: > 100 µM; GI50 [24]: > 100 µM; GI50 [25]: 32 µM; GI50 [26]: 9.2 µM; GI50 [27]: 80 µM; GI50 [28]: 0.55 µM; GI50 [29]: 52 µM; GI50 [30]: 77 µM; GI50 [31]: 3.8 µM; GI50 [32]: 76 µM; GI50 [33]: > 100 µM; GI50 [34]: > 100 µM; GI50 [35]: 71 µM; GI50 [36]: 49 µM; GI50 [37]: > 100 µM; GI50 [38]: > 100 µM; GI50 [39]: > 100 µM
CCCCCCCCCCCC[C@@H](O)[C@H]1CC[C@H]([C@H](O)CCCCCCCCCCCCc2cncnc2)O1	25	35	13	40	34	42	6.1	56	> 43	> 100	17	61	40	11	29	47	38	50	28	49	GI50 [21]: 39 µM; GI50 [22]: 22 µM; GI50 [23]: 29 µM; GI50 [24]: 16 µM; GI50 [25]: 34 µM; GI50 [26]: 28 µM; GI50 [27]: 28 µM; GI50 [28]: 4.1 µM; GI50 [29]: 22 µM; GI50 [30]: 33 µM; GI50 [31]: 13 µM; GI50 [32]: 33 µM; GI50 [33]: 52 µM; GI50 [34]: 32 µM; GI50 [35]: 36 µM; GI50 [36]: 28 µM; GI50 [37]: > 100 µM; GI50 [38]: 28 µM; GI50 [39]: 90 µM
CCCCCCCCCCCC[C@@H](O)[C@H]1CC[C@H]([C@H](O)CCCCCCCCCCCCc2ncccn2)O1	> 100	> 68	48	> 100	79	> 100	27	> 100	> 100	> 100	50	> 100	> 100	28	> 100	> 100	69	> 100	41	> 100	GI50 [21]: > 100 µM; GI50 [22]: 38 µM; GI50 [23]: > 100 µM; GI50 [24]: 12 µM; GI50 [25]: > 100 µM; GI50 [26]: > 100 µM; GI50 [27]: > 100 µM; GI50 [28]: 16 µM; GI50 [29]: 30 µM; GI50 [30]: 74 µM; GI50 [31]: 17 µM; GI50 [32]: > 100 µM; GI50 [33]: > 100 µM; GI50 [34]: > 100 µM; GI50 [35]: > 100 µM; GI50 [36]: 92 µM; GI50 [37]: > 100 µM; GI50 [38]: 32 µM; GI50 [39]: > 100 µM
